The experiment deals with T1, human recombinant p38α protein kinase (Homo sapiens, UniProt Q16539).
T1 construct: purchased UBI (Upstate Biotechnology Inc.) 14–251; host or cells: E. coli
Nature of the experiment: Human p38α MAP kinase inhibition assay (cell-free, phosphorylation of myelin basic protein). It counts as biochemical. As for the experimental part: Candidate compound and/or vehicle was preincubated with 0.075 μg/mL enzyme in modified HEPES buffer pH 7.4 at 25° C. for 15 minutes. The reaction was initiated by addition of 100 μM ATP and allowed to proceed for another 60 minutes. The reaction was terminated by aspirating the solution. Phosphorylated MBP was detected by incubation with a mouse monoclonal IgG2a anti-phosphoMBP antibody. Bound anti-phosphoMBP antibody was quantitated by incubation with a HRP conjugated goat anti-mouse IgG.

One may read the IC50 as the concentration that inhibits the measured activity by half.

T1 sequence (Q16539 whole entry): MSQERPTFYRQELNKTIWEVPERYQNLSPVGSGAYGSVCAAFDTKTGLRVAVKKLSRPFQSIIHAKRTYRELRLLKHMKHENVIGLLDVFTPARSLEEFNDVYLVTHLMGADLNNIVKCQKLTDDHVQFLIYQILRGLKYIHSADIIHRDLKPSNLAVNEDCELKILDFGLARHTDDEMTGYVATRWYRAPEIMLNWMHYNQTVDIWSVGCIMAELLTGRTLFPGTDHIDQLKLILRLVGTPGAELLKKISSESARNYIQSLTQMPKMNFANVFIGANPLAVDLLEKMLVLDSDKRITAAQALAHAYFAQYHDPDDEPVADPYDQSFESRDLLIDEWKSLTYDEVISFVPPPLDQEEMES

With `CCC(C)(C)C(=O)O[C@H]1C[C@@H](C)C=C2C=C[C@H](C)[C@H](CC[C@@H]3C[C@@H](O)CC(=O)O3)[C@H]21` [Simvastatin sodium], the IC50 was greater than 100 µM.

The record behind these values is US7199126B2, “Compositions and treatments for inhibiting kinase and/or HMG-CoA reductase” (Pharmix Corporation, priority 2004, dated 2007).
